From paper PMC4051630, “A Comparison of Protein Kinases Inhibitor Screening Methods Using Both Enzymatic Activity and Binding Affinity Determination” (PLoS ONE, 2014)

Key:
Experiment in all cases: Differential Scanning Fluorimetry (DSF) Tm shift
Assay type in all cases: binding
[1] = target: T1, PAK4 Catalytic Domain+PBD (Homo sapiens, UniProt O96013); conditions: 2 µM protein, 10 µM inhibitor, average of 3 experiments, each in duplicate
T1 construct: for 8, we also made a longer version containing one or more additional domains; His-tag; made in house; host or cells: Escherichia coli
T1 sequence (O96013 whole entry, the tested form may be a part): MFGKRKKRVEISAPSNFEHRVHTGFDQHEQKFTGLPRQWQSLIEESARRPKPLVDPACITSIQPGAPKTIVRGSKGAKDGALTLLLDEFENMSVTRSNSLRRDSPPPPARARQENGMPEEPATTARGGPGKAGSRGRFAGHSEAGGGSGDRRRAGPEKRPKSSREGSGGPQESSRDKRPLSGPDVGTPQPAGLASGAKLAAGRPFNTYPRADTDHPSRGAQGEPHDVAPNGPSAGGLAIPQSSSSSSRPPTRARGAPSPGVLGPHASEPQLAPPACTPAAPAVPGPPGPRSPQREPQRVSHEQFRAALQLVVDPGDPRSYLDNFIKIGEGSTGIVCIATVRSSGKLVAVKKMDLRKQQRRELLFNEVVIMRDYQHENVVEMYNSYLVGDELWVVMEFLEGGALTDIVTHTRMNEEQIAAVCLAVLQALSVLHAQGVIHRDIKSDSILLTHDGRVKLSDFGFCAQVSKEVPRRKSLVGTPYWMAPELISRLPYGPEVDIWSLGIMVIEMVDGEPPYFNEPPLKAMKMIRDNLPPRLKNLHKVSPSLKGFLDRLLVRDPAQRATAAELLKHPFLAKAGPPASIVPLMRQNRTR

[2] = target: T2, STK3 Catalytic domain+SARAH (Homo sapiens, UniProt Q13188); conditions: 2 µM protein, 10 µM inhibitor, average of 3 experiments, each in duplicate
T2 construct: for 8, we also made a longer version containing one or more additional domains; His-tag; made in house; host or cells: Escherichia coli
T2 sequence (Q13188 1-491): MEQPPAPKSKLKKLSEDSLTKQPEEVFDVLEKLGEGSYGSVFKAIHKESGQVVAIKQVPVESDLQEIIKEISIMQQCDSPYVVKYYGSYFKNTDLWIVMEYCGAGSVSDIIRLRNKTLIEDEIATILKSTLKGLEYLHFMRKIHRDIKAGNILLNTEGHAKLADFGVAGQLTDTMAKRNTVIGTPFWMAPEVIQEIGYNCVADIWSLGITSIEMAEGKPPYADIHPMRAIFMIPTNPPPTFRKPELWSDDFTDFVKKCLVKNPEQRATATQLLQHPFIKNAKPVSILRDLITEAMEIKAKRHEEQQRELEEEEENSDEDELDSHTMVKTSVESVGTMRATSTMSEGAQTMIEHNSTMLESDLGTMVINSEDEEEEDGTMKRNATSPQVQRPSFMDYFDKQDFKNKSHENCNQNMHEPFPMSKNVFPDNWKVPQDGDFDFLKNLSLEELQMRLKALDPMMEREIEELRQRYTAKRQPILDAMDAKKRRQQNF

STK3 Catalytic Domain = target: T3, STK3 Catalytic Domain (Homo sapiens, UniProt Q13188); conditions: 2 µM protein, 10 µM inhibitor, average of 3 experiments, each in duplicate
T3 construct: For all of them, we expressed and purified the catalytic domain separately; His-tag; made in house; host or cells: Escherichia coli
T3 sequence (Q13188 27-278 limits assumed): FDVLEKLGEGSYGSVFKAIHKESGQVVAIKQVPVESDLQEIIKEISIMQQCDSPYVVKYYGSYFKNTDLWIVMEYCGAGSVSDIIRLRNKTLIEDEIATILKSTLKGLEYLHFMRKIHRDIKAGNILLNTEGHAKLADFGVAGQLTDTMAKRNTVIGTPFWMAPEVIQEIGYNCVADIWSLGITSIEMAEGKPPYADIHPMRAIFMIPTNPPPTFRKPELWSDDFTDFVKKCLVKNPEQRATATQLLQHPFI

CDK2 + Cyclin E = target: T4, CDK2 + Cyclin E (Homo sapiens, UniProt P24941); conditions: CDK2 + Cyclin E; 2 µM protein, 10 µM inhibitor; average of 3 experiments, each in duplicate
T4 construct: CDK2 (P24941); 1–299; His-tag; made in house; host or cells: Escherichia coli

AKT3 Catalytic Domain = target: T5, AKT3 Catalytic Domain (Homo sapiens, UniProt Q9Y243); conditions: 2 µM protein, 10 µM inhibitor, average of 3 experiments, each in duplicate
T5 construct: AKT3 (Q9Y243); CD; His-tag; made in house; host or cells: Escherichia coli
T5 sequence (Q9Y243 122-479): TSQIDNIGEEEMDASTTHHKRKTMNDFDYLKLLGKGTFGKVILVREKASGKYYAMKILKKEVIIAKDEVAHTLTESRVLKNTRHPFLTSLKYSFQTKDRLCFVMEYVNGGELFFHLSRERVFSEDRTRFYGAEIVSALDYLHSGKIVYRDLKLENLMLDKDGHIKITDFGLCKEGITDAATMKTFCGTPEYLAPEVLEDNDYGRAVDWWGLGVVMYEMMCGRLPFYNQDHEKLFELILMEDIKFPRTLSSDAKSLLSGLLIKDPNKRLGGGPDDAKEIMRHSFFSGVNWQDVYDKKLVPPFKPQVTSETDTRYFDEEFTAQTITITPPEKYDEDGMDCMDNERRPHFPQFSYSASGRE

FAK2 Catalytic Domain = target: T6, FAK2 Catalytic Domain (Homo sapiens, UniProt Q14289); conditions: 2 µM protein, 10 µM inhibitor, average of 3 experiments, each in duplicate
T6 construct: For all of them, we expressed and purified the catalytic domain separately; His-tag; made in house; host or cells: Escherichia coli
T6 sequence (Q14289 425-683 limits assumed): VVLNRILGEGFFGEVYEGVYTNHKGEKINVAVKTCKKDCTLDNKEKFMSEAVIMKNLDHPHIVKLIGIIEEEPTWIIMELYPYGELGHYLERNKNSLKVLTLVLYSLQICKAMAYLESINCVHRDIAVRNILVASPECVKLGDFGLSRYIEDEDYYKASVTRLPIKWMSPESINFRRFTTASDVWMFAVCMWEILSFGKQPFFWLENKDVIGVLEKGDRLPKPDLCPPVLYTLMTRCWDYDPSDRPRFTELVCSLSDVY

FES Catalytic Domain+SH2 = target: T7, FES Catalytic Domain+SH2 (Homo sapiens, UniProt P07332); conditions: 2 µM protein, 10 µM inhibitor, average of 3 experiments, each in duplicate
T7 construct: for 8, we also made a longer version containing one or more additional domains; His-tag; made in house; host or cells: Escherichia coli
T7 sequence (P07332 448-822 limits assumed): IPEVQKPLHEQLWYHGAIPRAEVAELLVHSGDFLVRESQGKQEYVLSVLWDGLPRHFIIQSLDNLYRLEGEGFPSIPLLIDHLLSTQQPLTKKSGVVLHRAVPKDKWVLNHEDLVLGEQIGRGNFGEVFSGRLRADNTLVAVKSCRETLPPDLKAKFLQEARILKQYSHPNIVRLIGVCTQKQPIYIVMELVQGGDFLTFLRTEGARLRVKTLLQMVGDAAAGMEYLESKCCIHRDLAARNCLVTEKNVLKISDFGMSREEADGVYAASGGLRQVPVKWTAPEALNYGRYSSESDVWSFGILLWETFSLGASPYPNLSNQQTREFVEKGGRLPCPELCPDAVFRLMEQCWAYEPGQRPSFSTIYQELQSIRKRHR

SRC Catalytic Domain = SRC Catalytic Domain (Homo sapiens, UniProt P12931); parameters: For all of them, we expressed and purified the catalytic domain separately; His-tag; made in house; host or cells: Escherichia coli; conditions: 2 µM protein, 10 µM inhibitor, average of 3 experiments, each in duplicate
[3] = target: SRC Catalytic Domain+SH2+SH3 (Homo sapiens, UniProt P12931); conditions: 2 µM protein, 10 µM inhibitor, average of 3 experiments, each in duplicate
CDK2 + Cyclin A = target: T8, CDK2 + Cyclin A (Homo sapiens, UniProt P24941); conditions: CDK2 + Cyclin A; 2 µM protein, 10 µM inhibitor; average of 3 experiments, each in duplicate
T8 construct: CDK2 (P24941); 1–299; His-tag; made in house; host or cells: Escherichia coli

PAK4 Catalytic Domain = target: T9, PAK4 Catalytic Domain (Homo sapiens, UniProt O96013); conditions: 2 µM protein, 10 µM inhibitor, average of 3 experiments, each in duplicate
T9 construct: For all of them, we expressed and purified the catalytic domain separately; His-tag; made in house; host or cells: Escherichia coli
T9 sequence (O96013 321-572 limits assumed): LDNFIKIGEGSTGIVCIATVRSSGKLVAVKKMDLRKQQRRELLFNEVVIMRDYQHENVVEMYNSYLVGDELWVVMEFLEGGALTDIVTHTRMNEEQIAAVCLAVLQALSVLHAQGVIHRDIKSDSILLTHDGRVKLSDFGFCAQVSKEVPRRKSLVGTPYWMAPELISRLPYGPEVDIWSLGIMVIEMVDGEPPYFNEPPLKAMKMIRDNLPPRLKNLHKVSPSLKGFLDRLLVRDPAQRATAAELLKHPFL

PAK7 Catalytic Domain = target: T10, PAK7 Catalytic Domain (Homo sapiens, UniProt Q9P286); conditions: 2 µM protein, 10 µM inhibitor, average of 3 experiments, each in duplicate
T10 construct: For all of them, we expressed and purified the catalytic domain separately; His-tag; made in house; host or cells: Escherichia coli
T10 sequence (Q9P286 449-700 limits assumed): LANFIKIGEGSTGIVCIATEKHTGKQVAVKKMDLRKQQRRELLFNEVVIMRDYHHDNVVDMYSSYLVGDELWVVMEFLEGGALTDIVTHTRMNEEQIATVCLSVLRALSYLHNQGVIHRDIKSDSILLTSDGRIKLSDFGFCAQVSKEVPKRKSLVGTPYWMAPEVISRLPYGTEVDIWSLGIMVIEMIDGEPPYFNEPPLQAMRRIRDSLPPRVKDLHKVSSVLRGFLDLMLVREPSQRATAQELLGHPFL

DMPK Catalytic Domain = target: T11, DMPK Catalytic Domain (Homo sapiens, UniProt Q09013); conditions: 2 µM protein, 10 µM inhibitor, average of 3 experiments, each in duplicate
T11 construct: For all of them, we expressed and purified the catalytic domain separately; His-tag; made in house; host or cells: Escherichia coli
T11 sequence (Q09013 71-339 limits assumed): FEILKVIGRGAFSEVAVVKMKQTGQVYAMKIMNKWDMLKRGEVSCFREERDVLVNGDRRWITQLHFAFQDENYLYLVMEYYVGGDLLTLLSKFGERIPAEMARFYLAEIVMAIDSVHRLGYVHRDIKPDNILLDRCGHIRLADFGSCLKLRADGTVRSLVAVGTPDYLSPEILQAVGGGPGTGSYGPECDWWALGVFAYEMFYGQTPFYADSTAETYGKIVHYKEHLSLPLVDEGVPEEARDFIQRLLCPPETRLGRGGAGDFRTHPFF

CHK2 Catalytic Domain = target: T12, CHK2 Catalytic Domain (Homo sapiens, UniProt O96017); conditions: 2 µM protein, 10 µM inhibitor, average of 3 experiments, each in duplicate
T12 construct: For all of them, we expressed and purified the catalytic domain separately; His-tag; made in house; host or cells: Escherichia coli
T12 sequence (O96017 220-486 limits assumed): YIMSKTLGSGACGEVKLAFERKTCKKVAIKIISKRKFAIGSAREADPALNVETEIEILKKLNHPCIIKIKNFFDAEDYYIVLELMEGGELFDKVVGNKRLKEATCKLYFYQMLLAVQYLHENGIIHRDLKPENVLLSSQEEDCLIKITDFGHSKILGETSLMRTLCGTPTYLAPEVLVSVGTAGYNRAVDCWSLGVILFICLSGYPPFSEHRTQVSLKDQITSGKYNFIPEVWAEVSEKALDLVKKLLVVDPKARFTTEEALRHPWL

FES Catalytic Domain = target: T13, FES Catalytic Domain (Homo sapiens, UniProt P07332); conditions: 2 µM protein, 10 µM inhibitor, average of 3 experiments, each in duplicate
T13 construct: For all of them, we expressed and purified the catalytic domain separately; His-tag; made in house; host or cells: Escherichia coli
T13 sequence (P07332 561-822 limits assumed): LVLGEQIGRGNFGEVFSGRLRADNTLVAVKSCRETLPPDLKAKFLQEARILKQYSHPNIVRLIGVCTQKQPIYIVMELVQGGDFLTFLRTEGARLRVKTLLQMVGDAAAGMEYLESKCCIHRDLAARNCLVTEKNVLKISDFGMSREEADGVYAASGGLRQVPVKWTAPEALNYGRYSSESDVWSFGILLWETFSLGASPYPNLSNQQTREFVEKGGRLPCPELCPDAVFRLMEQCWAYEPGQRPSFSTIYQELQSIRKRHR

Molecule	Melting temperature (Tm) shift [1] [degrees Celcius]	Melting temperature (Tm) shift [2] [degrees Celcius]	Melting temperature (Tm) shift (STK3 Catalytic Domain) [degrees Celcius]	Melting temperature (Tm) shift (CDK2 + Cyclin E) [degrees Celcius]	Melting temperature (Tm) shift (AKT3 Catalytic Domain) [degrees Celcius]	Melting temperature (Tm) shift (FAK2 Catalytic Domain) [degrees Celcius]	Melting temperature (Tm) shift (FES Catalytic Domain+SH2) [degrees Celcius]	Melting temperature (Tm) shift (SRC Catalytic Domain) [degrees Celcius]	Melting temperature (Tm) shift [3] [degrees Celcius]	Melting temperature (Tm) shift (CDK2 + Cyclin A) [degrees Celcius]	Melting temperature (Tm) shift (PAK4 Catalytic Domain) [degrees Celcius]	Melting temperature (Tm) shift (PAK7 Catalytic Domain) [degrees Celcius]	Melting temperature (Tm) shift (DMPK Catalytic Domain) [degrees Celcius]	Melting temperature (Tm) shift (CHK2 Catalytic Domain) [degrees Celcius]	Melting temperature (Tm) shift (FES Catalytic Domain) [degrees Celcius]
Scytonemin [Scytonemin, Lyngbya sp.]	0.7	0.4	0.5	0.8	0.0	0.2	0.2	0.0	0.3	0.3	0.6	0.0	0.3	–	–
Cc1cc(C=C2C(=O)C=CC2=O)cc(C)c1O [TX-1918]	1.1	–	0.1	0.4	4.5	0.5	–	0.0	–	0.4	–	–	–	2.6	–
COc1ccc2c(c1)c(C1=C(c3c[nH]c4ccccc34)C(=O)NC1=O)cn2CCCN(C)C [Gö 6983]	–	0.7	0.2	0.1	0.0	–	0.7	0.2	–	0.4	0.0	0.1	1.9	5.6	0.9
O=C1Nc2ccccc2C1=C1Nc2ccccc2C1=NOCCC(O)CO (centres unmarked) [Indirubin Derivative E804]	2.1	3.5	5.2	1.1	0.7	2.8	1.0	3.1	2.8	–	1.9	1.7	0.6	2.2	1.1
COc1cc2ncnc(Nc3ccc(OCc4ccccc4)cc3)c2cc1OC [EGFR/ErbB-2 Inhibitor]	0.0	0.2	0.2	0.1	0.1	–	0.1	1.4	0.8	0.0	0.3	0.0	0.3	11.2	0.0
COc1cc(Nc2ncc3ccn(-c4cccc(CCC#N)c4)c3n2)cc(OC)c1OC [Keratinocyte Differentiation Inducer]	7.3	4.3	3.6	2.3	0.0	–	3.4	3.0	1.8	4.3	5.5	0.0	3.2	8.3	5.5
O=C(c1cc2cc(O)ccc2[nH]1)c1cc2cc(O)ccc2[nH]1 [Flt-3 Inhibitor II]	0.9	2.3	2.3	0.2	0.1	0.4	0.0	1.3	1.3	0.9	0.9	0.6	–	2.2	1.0
